Assay results: patent US12208077B2, “Synergistic composition for potentiating stabilized ATP” (CELAGENEX RESEARCH (INDIA) PVT. LTD., priority 2021, dated 2025)

What was measured:
[1] = cited from earlier work
[2] = cited from earlier work; remark: listed apart in the source
erythrocytes = conditions: humans; after 24 h of continuous infusion; dose-dependent; cited from earlier work
HepG2 cells = assay: Estimation of cellular ATP levels in HepG2 cells (BioVision kit); type: cell-based, human; conditions: 24 hr treatment, amount of each test substance as in the group name (Table 1/3)
Protocol: In vitro evaluation of the modulatory potential of the test substances on cellular ATP levels in (HepG2) human Hepatocellular carcinoma cell line.
(§1) About 10 mg of all the test substances were dissolved separately with 1 ml DMEM-HG supplemented with 2% inactivated FBS to obtain a stock solution of 10 mg/ml concentration and sterilized by 0.22u syringe filtration. Diluted the stock to desired concentration for carrying out further studies.
(§2) Cell line HepG2 was procured from NCCS (National Center for Cell Sciences), Pune, and was cultured in DMEM-HG supplemented with 10% inactivated Fetal Bovine Serum (FBS), penicillin (100 IU/ml), streptomycin (100 μg/ml) and amphotericin B (5 μg/ml) in a humidified atmosphere of 5% CO2 at 37° C. until confluent. The cells were dissociated with TPVG solution (0.2% trypsin, 0.02% EDTA, 0.05% glucose in PBS). The stock cultures were grown in 25 cm^2 culture flasks and all experiments were carried out in 96 well microtitre plates (Tarsons India Pvt. Ltd., Kolkata, India).
HepG2 cells were trypsinized from stock culture flasks and the cell count was adjusted to 1.0×10^5cells/ml, the cell suspension was seeded into a 96-well plate. After 24 hr, cell cultures with 70-80% confluency, cells were treated with different non-toxic concentrations of test substances. After 24 hr of treatment, the plate was washed with phosphate buffer saline. The cellular ATP levels determination was performed according to the instruction given in the kit manual (BioVision, #K354-100). At the end of the experiment, the optical density was read at 570 nm using microplate reader. From the absorbance values, the cellular ATP levels were estimated using kit protocol and the concentration of cellular ATP levels in treated groups were determined in comparison to the control groups.

[3] = In vitro cytotoxicity by MTT assay on HepG2 cell line; type: cell-based, human; conditions: human, HepG2 cells; for cytotoxicity at 24 h, 62.5 μg/mL: Test Conc. 62.5 μg/mL; for cytotoxicity at 24 h, 125 μg/mL: Test Conc. 125 μg/mL; for cytotoxicity at 24 h, 250 μg/mL: Test Conc. 250 μg/mL; for cytotoxicity at 24 h, 500 μg/mL: Test Conc. 500 μg/mL; for cytotoxicity at 24 h, 1000 μg/mL: Test Conc. 1000 μg/mL; for cytotoxicity at 24 h, 2000 μg/mL: Test Conc. 2000 μg/mL; for cytotoxicity at 24 h, 3000 μg/mL: Test Conc. 3000 μg/mL; for cytotoxicity at 24 h, 4000 μg/mL: Test Conc. 4000 μg/mL; for cytotoxicity at 24 h, 5000 μg/mL: Test Conc. 5000 μg/mL
Protocol: (§3) The in vitro cytotoxicity was performed on HepG2 (Human Hepatocellular Carcinoma) cell line to find the non-toxic concentrations of the test substances by MTT assay and evaluate their modulatory potential on cellular ATP levels
as §1, §2
(§4) The monolayer cell culture was trypsinized and the cell count was adjusted to 1.0×10^5cells/ml using DMEM-HG containing 10% FBS. To each well of the 96 well microtitre plate, 0.1 ml of the diluted cell suspension was added. After 24 h, when a partial monolayer was formed, the supernatant was flicked off, the monolayer was washed once with medium and 100 μl of different concentrations of test substances were added. The plate was then incubated at 37° C. for 24 h in a 5% CO2 atmosphere, and microscopic examination was carried out and observations were noted after 24 h time.
(§5) After 24 h of incubation, the drug solutions in the wells were discarded and 50 μl of MTT in DPBS was added to each well. The plate was gently shaken and incubated for 3 h at 37° C. in a 5% CO2 atmosphere. The supernatant was removed and 100 μl of 2-propanol was added and the plate was gently shaken to solubilize the formed formazan. The absorbance was measured using a microplate reader at a wavelength of 570 nm. The percentage growth inhibition was calculated using the standard formula. The concentration of test substances, needed to inhibit the growth of the cell by 50% i.e., CTC50 values were generated from the dose-response curves

HepG2 cell line = assay: as above; type: cell-based, human; conditions: Homo sapiens, concentration needed to inhibit growth of the cell by 50%, 24 h, read-out: CTC50
Protocol: as §3, §1, §2, §4, §5

MS-related fatigue = conditions: treatment of MS-related fatigue; cited from earlier work
[4] = tested on: Patients with hepatic encephalopathy (HE); conditions: patients with hepatic encephalopathy treated with ALCAR; cited from earlier work

Structure (SMILES) | half-life of infused ATP [1] | stability in acidic conditions [2] | increase of ATP concentrations in erythrocytes (erythrocytes) | Cellular ATP (HepG2 cells) | Percentage enhancement of cellular ATP levels over cell control (HepG2 cells) | cytotoxicity at 24 h, 62.5 μg/mL [3] | cytotoxicity at 24 h, 125 μg/mL [3] | cytotoxicity at 24 h, 250 μg/mL [3] | cytotoxicity at 24 h, 500 μg/mL [3] | cytotoxicity at 24 h, 1000 μg/mL [3] | cytotoxicity at 24 h, 2000 μg/mL [3] | cytotoxicity at 24 h, 3000 μg/mL [3] | cytotoxicity at 24 h, 4000 μg/mL [3] | cytotoxicity at 24 h, 5000 μg/mL [3] | IC50 (HepG2 cell line) | efficacy compared with amantadine (MS-related fatigue) | physical activity [4] | severity of mental and physical fatigue [4]
Nc1ncnc2c1ncn2[C@@H]1O[C@H](COP(=O)(O)OP(=O)(O)OP(=O)(O)O)[C@@H](O)[C@H]1O [ATP, Adenosine triphosphate] | less than one | quickly decompose | ~60% | 119.88 ± 0.45 nM | 230.33% | – | – | – | – | – | – | – | – | – | – | – | – | –
OO [Composition H2O2, H2O2, reference compound] | – | – | – | 22.35 ± 0.48 nM | −38.40% | – | – | – | – | – | – | – | – | – | – | – | – | –
CC(=O)NCCS(=O)(=O)O [Magnesium Acetyl Taurate, magnesium; 2-acetamidoethanesulfonate; dihydrate] | – | – | – | 56.28 ± 0.56 nM | 55.07% | 1.31 ± 0.231% | 1.25 ± 0.91% | 1.75 ± 0.43% | 1.53 ± 0.408% | 1.36 ± 0.967% | 6.55 ± 0.482% | 3.71 ± 1.34% | 6.17 ± 2.39% | 12.2 ± 1.56% | > 5000 µg/mL | – | – | –
CC(=O)O[C@H](CC(=O)O)C[N+](C)(C)C [N-Acetyl L carnitine, (3R)-3-acetyloxy-4-(trimethylazaniumyl) butanoate] | – | – | – | 39.92 ± 0.45 nM | 10.00% | 0.982 ± 0.876% | 0.546 ± 0.408% | 1.31 ± 0.134% | 1.69 ± 0.204% | 2.46 ± 1.58% | 2.62 ± 0.964% | 3 ± 0.736% | 5.18 ± 2.68% | 32.6 ± 2.55% | > 5000 µg/mL | more effective | increase | decrease
